From patent publication US12630520B2, “Left-handed bicyclic morpholine and salt thereof, preparation method therefor, pharmaceutical composition, and use” (Institute of Materia Medica, Chinese Academy of Medical …, priority 2019, dated 2026)

Tests used:
HepG2 cells [1] = experiment: Carbon tetrachloride (CCl4)-induced in vitro hepatocyte injury, MTT; assay type: cell-based, human; conditions: HepG2, 10 μM
Protocol: (§1) Human liver cancer HepG2 cells well retained the characteristics of normal human hepatocytes, and they were grown in a DMEM medium containing 10% of fetal calf cerium (containing 100 U/mL of penicillin and 100 μg/mL of streptomycin) at the culturing conditions: 37° C., 5% of CO2 and a saturated humidity. A solution containing 0.25% of trypsin and 0.02% of EDTA was used for digestions and passages.
A MTT method was adopted. The HepG2 cells were inoculated in a 96-well cell culture plate, and after 24 hour cultures, the (+)IMM-H014, the (−)IMM-H014 and the (±)IMM-H014 were added in a non-toxic concentration whilst the carbon tetrachloride (CCl4, a final concentration of 0.6%) was added thereto. A Bicyclol positive control group, a solvent control group and a model group were set for the experiment. They acted on the cells continuously for 24 h. The culture solution was discarded, and to each well, 100 μL of a MTT (0.5 mg/mL) solution was added to culture for 4 hours. The MTT solution was discarded, and to each well, 150 μL of DMSO was added. The mixture was oscillated by a mixing oscillator, and the absorbance value was measured at a wavelength of 570 nm in a microplate reader. Cell survival rate (%)=(OD mean of administration group/OD mean of solvent control group)×100%.
(§2) The data were presented as a number mean±standard deviation (x±SD).

HepG2 cells [2] = experiment: 4-Acetamidophenol (APAP)-induced in vitro hepatocyte injury, MTT and LDH; assay type: cell-based, human; conditions: HepG2, 10 μM, 8 mM APAP
Protocol: as §1, with “cell” for “cells”
A MTT method was adopted. The HepG2 cells were inoculated in a 96-well cell culture plate, and after 24 hour cultures, the (+)IMM-H014, the (−)IMM-H014 and the (±)IMM-H014 were added in a non-toxic concentration whilst the 4-acetamidophenol (APAP, a final concentration of 8 mM) was added thereto. A Bicyclol positive control group, a solvent control group and a model group were set for the experiment. The culture was continued for 24 h. 100 μL of the culture solution was taken and centrifuged, and a full-automatic biochemical analyzer in a LDH detection kit was utilized to detect the LDH level therein. The remaining culture solution was discarded, and to each well, 100 μL of a MTT (0.5 mg/mL) solution was added to continue the culture for 4 hours. The MTT solution was discarded, and to each well, 150 μL of DMSO was added. The mixture was oscillated by a mixing oscillator, and the absorbance value was measured at a wavelength of 570 nm in a microplate reader. Cell survival rate (%)=(OD mean of administration group/OD mean of solvent control group)×100%.
as §2

With `COC(=O)c1cc(OC)c2c(c1-c1c(CO)cc(OC)c3c1OCO3)OCO2` [Bicyclol] the “Survival rates (%)” value (HepG2 cells [1]; 0.6% CCl4, 24 h, MTT) was 89.47%, the “OD Mean ± SD” value (HepG2 cells [1]; 0.6% CCl4, 24 h, MTT, 570 nm) was 0.819 ± 0.099 and the “Cell survival rate increase (%)” value (HepG2 cells [1]; 0.6% CCl4, versus model group) was 15.36%. The “Survival rates (%)” value (HepG2 cells [2]; 24 h, MTT) was 50.67%, the “OD Mean ± SD” value (HepG2 cells [2]; 24 h, MTT, 570 nm) was 0.454 ± 0.092 and the “Cell survival rate increase (%)” value (HepG2 cells [2]; versus model group) was 32.2%.
